Entries after “also recorded” stand apart in the source; their conditions may differ. Like-named read-outs stand apart in the source and are kept apart here.
Tests used:
[1] = cited from earlier work; for amounts observed in the feces: oral 5-ASA, healthy volunteers
[2] = Faecal excretion and total recovery in healthy volunteers; assay type: in vivo, human (healthy volunteers); conditions: for daily qualitative faecal analysis: morning samples from day 2 throughout the study
Protocol: (§3) Each subject took two 5-ASA tablets, i.e. 500 mg 5-ASA, three times a day for six days, at 8 a.m., 4 p.m. and at midnight except for the first day, where the two first ingestions took place at 9 a.m. and 5 p.m. […] The two tablets at 8 a.m. were taken by the fasting subject. Venous blood samples for determination of 5-ASA and 5-AsASA were drawn at intevals throughout the first day (FIG. 5) and at 7.50 the following five days(i.e. before the 8 a.m. tablets were ingested) (FIG. 6). Twenty-four hour urine and faecal smaples were collected on the 6th day for quantitative determination of 5-ASA and 5-AcASA. EVery day throughout the study peroid of six days a single faecal sample was analgzed qualitatively for the presence of 5-ASA and 5-AcASA.

[3] = oral 5-ASA; rats; cited from earlier work
colitis ulcerosa = conditions: cited from earlier work; for therapeutic role on rectal administration: Azad Khan et al.
[4] = Plasma concentrations in healthy volunteers; assay type: in vivo, human (healthy volunteers)
Protocol: as §3

[5] = Urinary excretion in healthy volunteers; assay type: in vivo, human (healthy volunteers)
Excerpt: It is the purpose of the clinical studies described below to estimate the bioavailability of a sustained-release type 5-ASA tablet (Pentasea®) of the composition described above in the example by the study of 5-ASA/5-AcASA plasma levels in healthy volunteers as well as the excretion pattern in urine and faces.
(§1) DETERMINATION OF 5-ASA AND 5-AcASA IN BIOLOGICAL FLUIDS
(§2) Procedures for the determination of 5ASA and 5AcASA in ileostomy effluents, feces, urine and blood were based on a newly developed HPLC assay combined with flurescens spectophotometry.
Fourteen healthy persons consented to volunteer. They had no previous or present symptoms or signs of gastrointestinal or other disease apart from uncomplicated appendectomy. There were seven females and seven males. Mean age and age range were for the women 32.4 years and 29-37 years, and for the males 32 years and 24-40 years, respectively. Mean body weight and weight range were for the females 58.6 kg and 53-67 kg, and for the males 70.9 kg and 60-83 kg, respectively. There were eight slow and 6 fast acetylators.
Each subject took two 5-ASA tablets, i.e. 500 mg 5-ASA, three times a day for six days, at 8 a.m., 4 p.m. and at midnight except for the first day, where the two first ingestions took place at 9 a.m. and 5 p.m. The injections are shown by arrows on FIG. 5 and 6. The two tablets at 8 a.m. were taken by the fasting subject. Venous blood samples for determination of 5-ASA and 5-AsASA were drawn at intevals throughout the first day (FIG. 5) and at 7.50 the following five days(i.e. before the 8 a.m. tablets were ingested) (FIG. 6). Twenty-four hour urine and faecal smaples were collected on the 6th day for quantitative determination of 5-ASA and 5-AcASA. EVery day throughout the study peroid of six days a single faecal sample was analgzed qualitatively for the presence of 5-ASA and 5-AcASA.

[6] = cited from earlier work
[7] = Ileostomy effluent study (5-ASA / 5-AcASA excretion) in ileostomy patients; assay type: in vivo, human (ileostomy patients); conditions: for detection in ileostomy secretions: first two hours, 500 mg 5-ASA single oral dose; for excretion rate in ileostomy effluents: following hours up to 8 hours after ingestion
Excerpt: DETERMINATION OF 5-[…] BIOLOGICAL FLUIDS […] ILEOSTOMY PATIENTS Six ileostomy patients colectomized because of colitis ulcerosa with intact small bowel were studied. Their distribution as to sex, age, height, body weight, time since colectomy, small bowel transit time (carmine), and acetylator phenotype (v. Fischer and Klotz, op. cit.) (assessed by sulphadimidine) are shown below in talbe I. ILEOSTOMY PATIENTS […] Ileostomy effluents were collected every hour for eight hours (FIGS. 1+2) urine was collected over an 8 hour period and venous blood was drawn at intervals through the first eight hours (FIGS. 3 and 4).

[8] = Urinary excretion in ileostomy patients; assay type: in vivo, human (ileostomy patients)
Protocol: DETERMINATION OF 5-[…] BIOLOGICAL FLUIDS […] Six ileostomy patients colectomized because of colitis ulcerosa with intact small bowel were studied. Their distribution as to sex, age, height, body weight, time since colectomy, small bowel transit time (carmine), and acetylator phenotype (v. Fischer and Klotz, op. cit.) (assessed by sulphadimidine) are shown below in talbe I. […] Ileostomy effluents were collected every hour for eight hours (FIGS. 1+2) urine was collected over an 8 hour period and venous blood was drawn at intervals through the first eight hours (FIGS. 3 and 4).

[9] = Plasma concentrations in ileostomy patients; assay type: in vivo, human (ileostomy patients); conditions: half an hour after ingestion of 500 mg 5-ASA
Excerpt: as §1, §2
Six ileostomy patients colectomized because of colitis ulcerosa with intact small bowel were studied. Their distribution as to sex, age, height, body weight, time since colectomy, small bowel transit time (carmine), and acetylator phenotype (v. Fischer and Klotz, op. cit.) (assessed by sulphadimidine) are shown below in talbe I.
A single dose of two tablets of sustained-release 5-ASA i.e. total dose 500 mg, were ingested at 8 a.m. by the fasting patient who thereafter took a normal continental breakfast, lunch at noon, and dinner at 6 p.m. Ileostomy effluents were collected every hour for eight hours (FIGS. 1+2) urine was collected over an 8 hour period and venous blood was drawn at intervals through the first eight hours (FIGS. 3 and 4).

[10] = tested on: inflamed mucosa in ulcerative colitis; conditions: enema; compared with 5-ASA; cited from earlier work
Crohn's disease = conditions: cited from earlier work
[11] = cited from earlier work; remark: listed apart in the source

Nc1ccc(O)c(C(=O)O)c1 [5-ASA, 5-aminosalicylic acid]
absorption from the small bowel ([1]; free 5-ASA, oral, healthy subjects): absorbed from the small bowel in particular the jejunum; also recorded: essentially completely | amounts observed in the feces [1]: no noticeable amounts | faecal content of granules, released and non-released 5-ASA (average total) ([2]; analysed 24 hours after collection of the faeces): 5-10% | 95% confidence limits of mean faecal excretion of free 5-ASA and 5-AsASA ([2]; day 6, steady state): 378-650 mg per 24 h | total mean faecal excretion of free 5-ASA and 5-AsASA ([2]; day 6, steady state, sum of 5-ASA and 5-AsASA, mean): 514 mg per 24 h | recovery ([2]; human, urine and faeces, po, day 6, steady state, daily ingested total dose 1500 mg 5-ASA, read-out: mean recovery rate): 83% | daily qualitative faecal analysis [2]: presence | absorption from the small bowel [3]: essentially completely | amounts observed in the feces [3]: no noticeable amounts | therapeutic effect (colitis ulcerosa; Azad Khan et al. and van Hees et al.): also has therapeutic effect | therapeutic role on rectal administration (colitis ulcerosa): therapeutically active moiety; also recorded: exhibits a useful therapeutic activity like SASP | concentration at 144 h ([4]; human, plasma, po, day six, all fourteen subjects, 500 mg t.i.d., read-out: total range of 5-ASA plasma concentrations): 1200 to 2830 ng/mL | variation according to acetylator phenotype ([4]; slow and fast acetylators): did not show a significant variation | urinary excretion of free 5-ASA ([5]; 500 mg t.i.d.): could not be recorded | absorption from the colon ([6]; after SASP): the major part of the released 5-ASA is not absorbed | absorption of 5-ASA from the colon in diarrhoea ([6]; after SASP, van Hees et al.): drastically decreased | serum concentrations ([6]; in vivo, po): very low serum concentrations | share of collected portion as 5-ASA still retained in the granules ([7]; 8 hours, of the 58% collected): last third | share of collected portion as free 5-ASA ([7]; 8 hours, of the 58% collected): one third | detection in ileostomy secretions [7]: no 5-ASA or 5-AcASA could be detected | excretion rate in ileostomy effluents ([7]; 500 mg 5-ASA): excreted at constant rates | dose excreted at 48 h ([7]; human, ileostomy effluent, po, 500 mg, one patient, collecting up to 48 hours, read-out: further 5-ASA found on expanded collection): 20% | dose excreted at 8 h ([7]; human, ileostomy effluent, po, 8 hours after ingestion, 500 mg 5-ASA, read-out: ingested total dose collected in the ileostomy bags): 58% | Fa ([7]; human, small bowel, po, 500 mg, composition of the invention, ileostomy patients, read-out: 5-ASA that may be absorbed from the small bowel): ≤ 50% | 5-ASA retained in the granules ([7]; one patient, collecting up to 48 hours): more than one third | 5ASA found in urine ([8]; 500 mg 5-ASA single oral dose): no 5ASA was found except in one case | 5-ASA found in urine, one case ([8]; one patient, 500 mg 5-ASA): 1.4 mg

CC(=O)Nc1ccc(O)c(C(=O)O)c1 [5-AcASA, N-acetyl-5-aminosalicylic acid]
amounts observed in the feces [1]: no noticeable amounts | daily qualitative faecal analysis [2]: presence | amounts observed in the feces [3]: no noticeable amounts | plasma amounts of 5AsASA [9]: Trace amounts | detection in plasma and urine ([4]; whole study, 500 mg t.i.d. for six days): only 5AcASA was detected | 95% confidence limits of mean urinary 5-AsASA excretion ([5]; day 6, steady state): 587-887 mg per 24 h | mean urinary 5-AsASA excretion during 24 h ([5]; day 6, steady state, 24 h, calculated as 5-ASA, mean): 737 mg | serum concentrations ([6]; after oral administration of 4 g of SASP, Fischer and Klotz): very low serum concentrations | effect on the inflamed mucosa in ulcerative colitis [10]: resembled 5-ASA in its effect on the inflamed mucosa | share of collected portion as free 5-AsASA ([7]; 8 hours, of the 58% collected): another third | detection in ileostomy secretions [7]: no 5-ASA or 5-AcASA could be detected | excretion rate in ileostomy effluents ([7]; 500 mg 5-ASA): excreted at constant rates | mean 5-AsASA found in urine ([8]; within 8 hours, 500 mg 5-ASA, mean): 60 mg | range of 5-AsASA found in urine ([8]; within 8 hours, 500 mg 5-ASA, range): 42 to 82 mg

O=C(O)c1cc(/N=N/c2ccc(S(=O)(=O)Nc3ccccn3)cc2)ccc1O [SASP, salicylazosulfapyridine]
effectiveness in Crohn's disease of colon and rectum (Crohn's disease; disease extends to or limited to colon and rectum): proved effective | effectiveness in Crohn's disease limited to the ileum (Crohn's disease; disease limited to the ileum): not proved to be very effective | patients allergic to sulfa drugs ([11]; excludes SASP treatment): up to 10% | side effects ([11]; in vivo): nausea and vomitting, skin rashes, anemia, arthralgias, headache | state on reaching the colon ([6]; oral SASP): reaches the colon intact

Nc1ccc(S(=O)(=O)Nc2ccccn2)cc1 [SP, sulfapyridine]
therapeutic role on rectal administration (colitis ulcerosa): only acts as a "carrier" | absorption from the colon ([6]; after SASP): highly absorbed from the colon
